Results: ChEMBL document CHEMBL3638540, “Pyrolinone derivative and pharmaceutical composition comprising the same” (2013)

Molecular target: T1, P2X purinoceptor 3 (Homo sapiens, UniProt P56373)
T1 sequence (P56373 whole entry): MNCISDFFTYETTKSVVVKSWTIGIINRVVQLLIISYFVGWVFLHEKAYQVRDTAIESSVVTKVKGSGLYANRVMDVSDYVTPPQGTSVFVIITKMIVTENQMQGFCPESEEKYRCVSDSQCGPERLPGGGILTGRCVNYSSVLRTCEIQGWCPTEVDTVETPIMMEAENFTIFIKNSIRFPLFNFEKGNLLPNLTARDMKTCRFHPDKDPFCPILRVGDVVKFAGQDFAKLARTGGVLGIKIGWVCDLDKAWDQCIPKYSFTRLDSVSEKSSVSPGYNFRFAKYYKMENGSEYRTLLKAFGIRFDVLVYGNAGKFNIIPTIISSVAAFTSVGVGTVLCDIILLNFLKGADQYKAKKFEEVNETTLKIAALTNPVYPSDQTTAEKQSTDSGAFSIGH
Assay: Inhibiton Assay: Inhibition assay using human P2X3 receptor gene (GeneBank accession number Y07683).

| Compound | IC50 [µM] |
| --- | --- |
| COc1ccccc1C1c2c(n[nH]c2C(C)(C)C)C(=O)N1c1ccc(Br)cc1 (stereo not drawn) | 0.238 |
| COc1ncccc1C1c2c(n[nH]c2C(C)(C)C)C(=O)N1c1ccc(Br)cc1 (stereo not drawn) | 0.811 |
| COc1ccccc1C1c2c(n[nH]c2C(C)(C)CO)C(=O)N1c1ccc(Br)cc1 (stereo not drawn) | 0.473 |
